Measured values as given in patent US9999222B2, “Herbicidal combination comprising azines” (BASF SE, priority 2014, dated 2018).
Like-named read-outs stand apart in the source and are kept apart here.

Tests used:
Experiment in all cases: Greenhouse test, pre-emergence treatment
GERPU = format: in vivo, Geranium pusillum; details: Geranium pusillum, pre-emergence, 480 h
Text: (§1) The culture containers used were plastic flowerpots containing loamy sand with approximately 3.0% of humus as the substrate. The seeds of the test plants were sown separately for each species.
(§2) For the pre-emergence treatment, the active ingredients, which had been suspended or emulsified in water, were applied directly after sowing by means of finely distributing nozzles. The containers were irrigated gently to promote germination and growth and subsequently covered with transparent plastic hoods until the plants had rooted. This cover caused uniform germination of the test plants, unless this had been impaired by the active ingredients.
(§3) Depending on the species, the plants were kept at 10-25° C. or 20-35° C., respectively.
(§4) The test period extended over 2 to 4 weeks. During this time, the plants were tended, and their response to the individual treatments was evaluated.
(§5) Evaluation was carried out using a scale from 0 to 100. 100 means no emergence of the plants, or complete destruction of at least the aerial moieties, and 0 means no damage, or normal course of growth. A moderate herbicidal activity is given at values of at least 60, a good herbicidal activity is given at values of at least 70, and a very good herbicidal activity is given at values of at least 85.
(§6) The respective stated components a and b, and if appropriate, c were formulated as a 10% by weight strength emulsion concentrate and, with addition of the amount of solvent system, introduced into the spray liquor used for applying the active compound.
(§7) In the examples, the solvent used was water.
(§8) In the examples below, using the method of S. R. Colby (1967) “Calculating synergistic and antagonistic responses of herbicide combinations”, Weeds 15, p. 22ff., the value E, which is expected if the activity of the individual active compounds is only additive, was calculated. E=X+Y−(X·Y/100) where • X=percent activity using active compound a at an application rate A; • Y=percent activity using active compound b at an application rate B; • E=expected activity (in %) by a+b at application rates A+B.
(§9) If the value found experimentally is higher than the value E calculated according to Colby, a synergistic effect is present.

IPOHE = format: in vivo, Ipomoea hederacea; details: Ipomoea hederacea, 480 h
Text: as §1, §2, §3, §4, §5, §6, §7, §8, §9

COMBE = format: in vivo, Commelina benghalensis; details: Commelina benghalensis, pre-emergence, 480 h
Text: as §1, §2, §3, §4, §5, §6, §7, §8, §9

ANTAR = format: in vivo; details: Anthemis arvensis, 480 h, 20 DAT, read-out: observed % activity
Text: as §1, §2, §3, §4, §5, §6, §7, §8, §9

KCHSC = format: in vivo, Kochia scoparia; details: Bassia scoparia, pre-emergence, 480 h
Text: as §1, §2, §3, §4, §5, §6, §7, §8, §9

CENCY = format: in vivo; details: 480 h, individual, read-out: observed % activity 20 DAT
POLCO = format: in vivo, Polygonum convolvulus; details: Fallopia convolvulus, pre-emergence, 480 h
Text: as §1, §2, §3, §4, §5, §6, §7, §8, §9

GALAP = format: in vivo, Galium aparine; details: Galium aparine, pre-emergence, 480 h
Text: as §1, §2, §3, §4, §5, §6, §7, §8, §9

EPHHL = format: in vivo, Euphorbia heterophylla; details: Euphorbia heterophylla, pre-emergence, 480 h
Text: as §1, §2, §3, §4, §5, §6, §7, §8, §9

ABUTH = format: in vivo, Abutilon theophrasti; details: Abutilon theophrasti, 480 h
Text: as §1, §2, §3, §4, §5, §6, §7, §8, §9

SIDRH = format: in vivo, Sida rhombifolia; details: Sida rhombifolia, pre-emergence, 480 h, 20 DAT, read-out: observed % activity
Text: as §1, §2, §3, §4, §5, §6, §7, §8, §9

[1] = 250 g ai/ha, 20 DAT, read-out: observed % activity
[2] = 500 g ai/ha, 20 DAT, read-out: observed % activity
[3] = 25 g ai/ha, 20 DAT, read-out: observed % activity
[4] = 50 g ai/ha, 20 DAT, read-out: observed % activity

## Cc1ccc(NC(=O)N(C)C)cc1Cl [chlorotoluron]
GERPU; [1]
  inhibition at 250 g/ha: 25%
GERPU; [2]
  inhibition at 500 g/ha: 20%
GERPU; GERPU, individual, use rate 125 g ai/ha, read-out: observed % activity 20 DAT
  inhibition at 125 g/ha: 25%
GERPU; GERPU, individual, use rate 250 g ai/ha, read-out: observed % activity 20 DAT
  inhibition at 250 g/ha: 25%
IPOHE; [2]
  inhibition at 500 g/ha: 0%
IPOHE; IPOHE, individual, use rate 250 g ai/ha, read-out: observed % activity 20 DAT
  inhibition at 250 g/ha: 0%
COMBE; [1]
  inhibition at 250 g/ha: 20%
COMBE; COMBE, individual, use rate 125 g ai/ha, read-out: observed % activity 20 DAT
  inhibition at 125 g/ha: 0%
COMBE; COMBE, individual, use rate 250 g ai/ha, read-out: observed % activity 20 DAT
  inhibition at 250 g/ha: 0%
ANTAR; 250 g ai/ha
  inhibition at 250 g/ha: 45%
ANTAR; 500 g ai/ha
  inhibition at 500 g/ha: 45%
KCHSC; [1]
  inhibition at 250 g/ha: 20%
KCHSC; [2]
  inhibition at 500 g/ha: 50%
KCHSC; KCHSC, individual, use rate 125 g ai/ha, read-out: observed % activity 20 DAT
  inhibition at 125 g/ha: 15%
CENCY; use rate 125 g ai/ha
  inhibition at 125 g/ha: 20%
CENCY; use rate 250 g ai/ha
  inhibition at 250 g/ha: 0%
POLCO; [1]
  inhibition at 250 g/ha: 0%
POLCO; [2]
  inhibition at 500 g/ha: 20%
POLCO; POLCO, individual, use rate 250 g ai/ha, read-out: observed % activity 20 DAT
  inhibition at 250 g/ha: 0%
GALAP; [2]
  inhibition at 500 g/ha: 50%
GALAP; GALAP, individual, use rate 125 g ai/ha, read-out: observed % activity 20 DAT
  inhibition at 125 g/ha: 25%
GALAP; GALAP, individual, use rate 250 g ai/ha, read-out: observed % activity 20 DAT
  inhibition at 250 g/ha: 30%
EPHHL; [1]
  inhibition at 250 g/ha: 0%
EPHHL; EPHHL, individual, use rate 250 g ai/ha, read-out: observed % activity 20 DAT
  inhibition at 250 g/ha: 15%
ABUTH; [1]
  inhibition at 250 g/ha: 0%
ABUTH; [2]
  inhibition at 500 g/ha: 0%
ABUTH; ABUTH, individual, use rate 125 g ai/ha, read-out: observed % activity 20 DAT
  inhibition at 125 g/ha: 0%
ABUTH; ABUTH, individual, use rate 250 g ai/ha, read-out: observed % activity 20 DAT
  inhibition at 250 g/ha: 0%
SIDRH; 250 g ai/ha
  inhibition at 250 g/ha: 0%
SIDRH; 500 g ai/ha
  inhibition at 500 g/ha: 0%

## CS(=O)(=O)c1cc(C(F)(F)F)ccc1C(=O)c1cnoc1C1CC1 [isoxaflutole]
GERPU; [3]
  inhibition at 25 g/ha: 0%
GERPU; [4]
  inhibition at 50 g/ha: 45%
GERPU; GERPU, individual, use rate 25 g ai/ha, read-out: observed % activity 20 DAT
  inhibition at 25 g/ha: 70%
GERPU; GERPU, individual, use rate 50 g ai/ha, read-out: observed % activity 20 DAT
  inhibition at 50 g/ha: 50%
IPOHE; IPOHE, individual, use rate 50 g ai/ha, read-out: observed % activity 20 DAT
  inhibition at 50 g/ha: 35%
COMBE; [3]
  inhibition at 25 g/ha: 85%
COMBE; [4]
  inhibition at 50 g/ha: 80%
COMBE; COMBE, individual, use rate 50 g ai/ha, read-out: observed % activity 20 DAT
  inhibition at 50 g/ha: 45%
ANTAR; 25 g ai/ha
  inhibition at 25 g/ha: 95%
ANTAR; 50 g ai/ha
  inhibition at 50 g/ha: 98%
KCHSC; [3]
  inhibition at 25 g/ha: 98%
KCHSC; [4]
  inhibition at 50 g/ha: 98%
KCHSC; KCHSC, individual, use rate 25 g ai/ha, read-out: observed % activity 20 DAT
  inhibition at 25 g/ha: 98%
KCHSC; KCHSC, individual, use rate 50 g ai/ha, read-out: observed % activity 20 DAT
  inhibition at 50 g/ha: 98%
CENCY; use rate 25 g ai/ha
  inhibition at 25 g/ha: 20%
CENCY; use rate 50 g ai/ha
  inhibition at 50 g/ha: 60%
POLCO; [3]
  inhibition at 25 g/ha: 0%
POLCO; [4]
  inhibition at 50 g/ha: 30%
POLCO; POLCO, individual, use rate 25 g ai/ha, read-out: observed % activity 20 DAT
  inhibition at 25 g/ha: 0%
POLCO; POLCO, individual, use rate 50 g ai/ha, read-out: observed % activity 20 DAT
  inhibition at 50 g/ha: 0%
GALAP; [3]
  inhibition at 25 g/ha: 40%
GALAP; GALAP, individual, use rate 25 g ai/ha, read-out: observed % activity 20 DAT
  inhibition at 25 g/ha: 40%
GALAP; GALAP, individual, use rate 50 g ai/ha, read-out: observed % activity 20 DAT
  inhibition at 50 g/ha: 70%
EPHHL; [3]
  inhibition at 25 g/ha: 85%
EPHHL; [4]
  inhibition at 50 g/ha: 85%
EPHHL; EPHHL, individual, use rate 25 g ai/ha, read-out: observed % activity 20 DAT
  inhibition at 25 g/ha: 65%
EPHHL; EPHHL, individual, use rate 50 g ai/ha, read-out: observed % activity 20 DAT
  inhibition at 50 g/ha: 70%
ABUTH; [3]
  inhibition at 25 g/ha: 98%
ABUTH; ABUTH, individual, use rate 50 g ai/ha, read-out: observed % activity 20 DAT
  inhibition at 50 g/ha: 95%
SIDRH; 25 g ai/ha
  inhibition at 25 g/ha: 90%
SIDRH; 50 g ai/ha
  inhibition at 50 g/ha: 98%
